Measurements: BindingDB's records for doi:10.1007/s002100000327 (Leicester Royal Infirmary, 2001)

Columns and labels:
[1] = biological target: Delta-type opioid receptor (Homo sapiens, UniProt P41143)
[2] = biological target: Kappa-type opioid receptor (Homo sapiens, UniProt P41145)
[3] = biological target: Mu-type opioid receptor (Homo sapiens, UniProt P35372)
Sequence of Mu-type opioid receptor (P35372 whole entry): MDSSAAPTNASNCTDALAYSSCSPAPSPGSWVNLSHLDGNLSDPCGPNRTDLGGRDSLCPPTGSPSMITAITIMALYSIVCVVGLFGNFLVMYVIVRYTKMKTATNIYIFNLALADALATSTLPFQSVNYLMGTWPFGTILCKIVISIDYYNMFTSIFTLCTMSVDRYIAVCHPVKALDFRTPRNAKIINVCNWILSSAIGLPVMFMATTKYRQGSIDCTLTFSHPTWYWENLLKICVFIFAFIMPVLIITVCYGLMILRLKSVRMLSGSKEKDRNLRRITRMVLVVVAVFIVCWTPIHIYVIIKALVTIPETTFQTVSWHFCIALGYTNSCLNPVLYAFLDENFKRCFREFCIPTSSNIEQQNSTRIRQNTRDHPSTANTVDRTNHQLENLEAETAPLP

Sequence of Delta-type opioid receptor (P41143 whole entry): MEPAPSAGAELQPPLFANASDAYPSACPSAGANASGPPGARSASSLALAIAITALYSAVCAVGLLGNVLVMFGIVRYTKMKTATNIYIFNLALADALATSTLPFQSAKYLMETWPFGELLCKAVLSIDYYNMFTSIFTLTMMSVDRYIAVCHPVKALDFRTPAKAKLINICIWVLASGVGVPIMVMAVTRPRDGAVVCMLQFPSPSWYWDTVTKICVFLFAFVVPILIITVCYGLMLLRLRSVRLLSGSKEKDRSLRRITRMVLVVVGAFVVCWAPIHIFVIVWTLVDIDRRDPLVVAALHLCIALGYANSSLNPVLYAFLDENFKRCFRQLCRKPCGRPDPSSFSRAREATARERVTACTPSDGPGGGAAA
Sequence of Kappa-type opioid receptor (P41145 whole entry): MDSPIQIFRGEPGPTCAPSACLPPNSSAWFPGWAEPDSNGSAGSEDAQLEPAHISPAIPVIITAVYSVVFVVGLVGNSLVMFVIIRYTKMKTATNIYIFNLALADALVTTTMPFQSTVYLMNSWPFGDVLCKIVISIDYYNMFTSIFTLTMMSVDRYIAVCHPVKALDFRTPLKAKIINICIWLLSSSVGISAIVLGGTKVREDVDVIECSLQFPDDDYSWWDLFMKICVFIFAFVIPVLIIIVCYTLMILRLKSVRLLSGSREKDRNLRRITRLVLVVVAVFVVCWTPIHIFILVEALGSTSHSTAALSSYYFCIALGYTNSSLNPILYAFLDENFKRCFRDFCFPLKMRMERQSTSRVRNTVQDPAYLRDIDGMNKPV

| Structure (SMILES) | Ki [1] [nM] | Ki [2] [nM] | Ki [3] [nM] |
| --- | --- | --- | --- |
| CC(=O)N[C@@H](CCCN=C(N)N)C(=O)N[C@H](CC1CCCCC1)C(=O)N[C@H]1CC[C@@H]2SC[C@@H](C(=O)N[C@H](CCCN=C(N)N)C(=O)N[C@H](Cc3ccc(Cl)cc3)C(N)=O)N2C1=O [NOCICEPTIN RECEPTOR ANTAGONIST PEPTIDE III-BTD] | 60.3 | 11.5 | 8.91 |
| C[C@H](NC(=O)CNC(=O)[C@@H](NC(=O)[C@H](Cc1ccccc1)NC(=O)CNC(=O)CNC(=O)CNCc1ccccc1)[C@@H](C)O)C(=O)N[C@@H](CCCN=C(N)N)C(=O)N[C@@H](CCCCN)C(=O)N[C@@H](CO)C(=O)N[C@@H](C)C(=O)N[C@@H](CCCN=C(N)N)C(=O)N[C@@H](CCCCN)C(N)=O [H-PHE-(R)-GLY-GLY-PHE-THR-GLY-ALA-ARG-LYS-SER-ALA-ARG-LYS-NH2] | > 10000 | 1100 | > 10000 |
